Data as given in patent publication US7879848B2, “Dipeptidyl Peptidase-IV inhibiting compounds, method of preparing the same, and pharmaceutical compositions containing the same as an active agent” (LG Life Sciences, Ltd., priority 2005, dated 2011).

What follows are compounds tested against T1, Dipeptidyl Peptidase-IV (DPP-IV) (Homo sapiens, UniProt P27487) (assay: Measurement of DPP-IV Activity-Inhibiting Ability (fluorescent substrate Ac-Gly-Pro-AFC)). Conditions: 25° C., 50 mmol HEPES (pH 7.4), DP-IV 7.1 nM, enzyme reaction for 1 hour.
T1 construct: made in house
T1 sequence (P27487 whole entry): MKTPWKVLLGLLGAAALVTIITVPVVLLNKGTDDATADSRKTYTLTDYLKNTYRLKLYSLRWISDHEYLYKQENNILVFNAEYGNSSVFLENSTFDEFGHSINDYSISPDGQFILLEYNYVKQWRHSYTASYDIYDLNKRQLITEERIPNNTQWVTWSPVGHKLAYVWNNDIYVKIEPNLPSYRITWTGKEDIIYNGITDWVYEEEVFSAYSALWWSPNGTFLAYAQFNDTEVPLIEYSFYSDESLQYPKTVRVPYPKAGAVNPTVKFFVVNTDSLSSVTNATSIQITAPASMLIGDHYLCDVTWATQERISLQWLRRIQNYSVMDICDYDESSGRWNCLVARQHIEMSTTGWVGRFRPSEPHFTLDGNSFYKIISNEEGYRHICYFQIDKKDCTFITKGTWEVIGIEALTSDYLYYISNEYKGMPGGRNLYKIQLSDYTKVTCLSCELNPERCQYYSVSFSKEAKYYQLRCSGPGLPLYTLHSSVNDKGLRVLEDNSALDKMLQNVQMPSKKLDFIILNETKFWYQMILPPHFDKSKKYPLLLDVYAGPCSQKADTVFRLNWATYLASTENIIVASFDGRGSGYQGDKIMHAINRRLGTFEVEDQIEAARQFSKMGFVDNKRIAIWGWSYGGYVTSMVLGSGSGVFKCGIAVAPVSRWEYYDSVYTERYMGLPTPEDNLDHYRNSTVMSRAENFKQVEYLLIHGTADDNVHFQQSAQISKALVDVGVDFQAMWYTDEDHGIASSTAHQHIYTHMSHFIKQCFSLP
Assay type: biochemical
Description: Dipeptidyl Peptidase-IV (DPP-IV), known as serine protease, was obtained by a modification of the known method (Tanaka T. et al, Proc. Natl. Acad. Sci. USA, (1994) 91, 3082-3086), which comprises cloning, purification by use of Baculo-Virus and activation steps. DPP-IV was used to test the pharmaceutical efficacy of candidate inhibitors as follows. The cloned DP-IV was expressed in Baculo-Virus, which was purified by nickel column and then subjected to dialysis. The inhibitors synthesized in Examples were tested to determine the binding activity there of using a fluorescent substrate, Ac-Gly-Pro-AFC. Enzyme reactions were conducted for various concentrations of inhibitors, using 100 µM Ac-Gly-Pro-AFC at 25° C. in a buffer solution containing 50 mmol HEPES (pH 7.4), with the concentration of DP-IV being 7.1 nM. […] As the fluorescent spectrometer, Spectra MAX GeminiXS fluorescent spectrometer from Molecular Device Co. was used and the excitation frequency and emission frequency were set to 400 nm and 505 nm, respectively.

First: N[C@@H](CC(=O)N1CCn2c(nnc2C(F)(F)F)C1)CN1CCOC1=O [Ex. 1, 3-[2S-amino-4-oxo-4-(3-trifluoromethyl-5,6-dihydro-8H-[1,2,4]triazolo[4,3-a]pyrazin-7-yl)-butyl]-oxazolidin-2-one]
Second: N[C@@H](CC(=O)N1CCn2c(nnc2C(F)(F)F)C1)CN1CCCC1=O [Ex. 6, 1-[2S-amino-4-oxo-4-(3-trifluoromethyl-5,6-dihydro-8H-[1,2,4]triazolo[4,3-a]pyrazin-7-yl)-butyl]-pyrrolidin-2-one]
The IC50 of the first is higher: over 10000 nM for the first, 989 nM for the second.

First: CC1CN(C[C@@H](N)CC(=O)N2CCn3c(nnc3C(F)(F)F)C2)C(=O)O1 (stereo partly drawn) [Ex. 2, 3-[2S-amino-4-oxo-4-(3-trifluoromethyl-5,6-dihydro-8H-[1,2,4]triazolo[4,3-a]pyrazin-7-yl)-butyl]-5-methyl-oxazolidin-2-one]
Second: CC1CN(C[C@@H](N)CC(=O)N2CCn3c(nnc3C(F)(F)F)C2)C(=O)CO1 (stereo partly drawn) [Ex. 16, 4-[2S-amino-4-oxo-4-(3-trifluoromethyl-5,6-dihydro-8H-[1,2,4]triazolo[4,3-a]pyrazin-7-yl)-butyl]-6-methyl-morpholin-3-one]
The IC50 of the first is 14-fold higher: 950 nM for the first, 66 nM for the second. The second is the more potent here.

CC1CC(=O)N(C[C@@H](N)CC(=O)N2CCn3c(nnc3C(F)(F)F)C2)C1 (stereo partly drawn) [Ex. 4, 1-[2S-amino-4-oxo-4-(3-trifluoromethyl-5,6-dihydro-8H-[1,2,4]triazolo[4,3-a]pyrazin-7-yl)-butyl]-4-methyl-pyrrolidin-2-one] and CC1CCN(C[C@@H](N)CC(=O)N2CCn3c(nnc3C(F)(F)F)C2)C(=O)C1 (stereo partly drawn) [Ex. 10, 1-[2S-amino-4-oxo-4-(3-trifluoromethyl-5,6-dihydro-8H-[1,2,4]triazolo[4,3-a]pyrazin-7-yl)-butyl]-4-methyl-piperidin-2-one] are within 1.5-fold of each other in IC50: 127 nM for the first, 141 nM for the second.

N[C@@H](CC(=O)N1CCn2c(nnc2C(F)(F)F)C1)CN1CCC(F)C1=O (stereo partly drawn) [Ex. 5, 1-[2S-amino-4-oxo-4-(3-trifluoromethyl-5,6-dihydro-8H-[1,2,4]triazolo[4,3-a]pyrazin-7-yl)-butyl]-3-fluoro-pyrrolidin-2-one] and N[C@@H](CC(=O)N1CCn2c(nnc2C(F)(F)F)C1)CN1CCCC(F)C1=O (stereo partly drawn) [Ex. 7, 1-[2S-amino-4-oxo-4-(3-trifluoromethyl-5,6-dihydro-8H-[1,2,4]triazolo[4,3-a]pyrazin-7-yl)-butyl]-3-fluoro-piperidin-2-one] cannot be ordered by IC50: over 10000 nM for the first, over 10000 nM for the second.

Compared with CC1CCN(C[C@@H](N)CC(=O)N2CCn3c(nnc3C(F)(F)F)C2)C1=O (stereo partly drawn) [Ex. 8, 1-[2S-amino-4-oxo-4-(3-trifluoromethyl-5,6-dihydro-8H-[1,2,4]triazolo[4,3-a]pyrazin-7-yl)-butyl]-3-methyl-pyrrolidin-2-one], C[C@@H]1CCC(=O)N(C[C@@H](N)CC(=O)N2CCn3c(nnc3C(F)(F)F)C2)C1 [Ex. 12, 1-[2S-amino-4-oxo-4-(3-trifluoromethyl-5,6-dihydro-8H-[1,2,4]triazolo[4,3-a]pyrazin-7-yl)-butyl]-5R-methyl-piperidin-2-one] is 120-fold lower in IC50: 4150 nM for the first, 35 nM for the second. The second is the more potent here.

Going from CC1=CC(=O)N(C[C@@H](N)CC(=O)N2CCn3c(nnc3C(F)(F)F)C2)C1 [Ex. 9, 1-[2S-amino-4-oxo-4-(3-trifluoromethyl-5,6-dihydro-8H-[1,2,4]triazolo[4,3-a]pyrazin-7-yl)-butyl]-4-methyl-1,5-dihydro-pyrrol-2-one] to N[C@@H](CC(=O)N1CCn2c(nnc2C(F)(F)F)C1)CN1CC(F)(F)CCC1=O [Ex. 11, 1-[2S-amino-4-oxo-4-(3-trifluoromethyl-5,6-dihydro-8H-[1,2,4]triazolo[4,3-a]pyrazin-7-yl)-butyl]-5,5-difluoro-piperidin-2-one], the IC50 falls from 201 nM to 75 nM (2.7-fold).

Compared with N[C@@H](CC(=O)N1CCn2c(nnc2C(F)(F)F)C1)CN1CC(C(F)(F)F)CC1=O (stereo partly drawn) [Ex. 13, 1-[2S-amino-4-oxo-4-(3-trifluoromethyl-5,6-dihydro-8H-[1,2,4]triazolo[4,3-a]pyrazin-7-yl)-butyl]-4-trifluoromethyl-pyrrolidin-2-one], N[C@@H](CC(=O)N1CCn2c(nnc2C(F)(F)F)C1)CN1CCC(C(F)(F)F)CC1=O (stereo partly drawn) [Ex. 14, 1-[2S-amino-4-oxo-4-(3-trifluoromethyl-5,6-dihydro-8H-[1,2,4]triazolo[4,3-a]pyrazin-7-yl)-butyl]-4-trifluoromethyl-piperidin-2-one] is 1.7-fold lower in IC50: 378 nM for the first, 217 nM for the second.

Going from N[C@@H](CC(=O)N1CCn2c(nnc2C(F)(F)F)C1)CN1CC(C(F)(F)F)CCC1=O (stereo partly drawn) [Ex. 15, 1-[2S-amino-4-oxo-4-(3-trifluoromethyl-5,6-dihydro-8H-[1,2,4]triazolo[4,3-a]pyrazin-7-yl)-butyl]-5-trifluoromethyl-piperidin-2-one] to C[C@@H]1CCC(=O)N(C[C@@H](N)CC(=O)N2CCc3c(ncnc3C(F)(F)F)C2)C1 [Ex. 21], the IC50 falls from 2500 nM to 24 nM (100-fold). The second is the more potent here.

Going from N[C@@H](CC(=O)N1CCc2ccccc2C1)CN1CCCCC1=O [Ex. 17, 1-[2S-amino-4-(3,4-dihydro-1H-isoquinolin-2-yl)-4-oxo-butyl]-piperidin-2-one] to CC1CC(=O)N(C[C@@H](N)CC(=O)N2CCc3ccccc3C2)C1 (stereo partly drawn) [Ex. 18, 1-[2S-amino-4-(3,4-dihydro-1H-isoquinolin-2-yl)-4-oxo-butyl]-4-methyl-pyrrolidin-2-one], the IC50 falls from 2020 nM to 816 nM (2.5-fold).

Going from N[C@@H](CC(=O)N1CCc2c(noc2C(F)(F)F)C1)CN1CCCCC1=O [Ex. 19, 1-[2S-amino-4-oxo-4-(3-trifluoromethyl-4,5-dihydro-7H-isooxazolo[3,4-c]pyridin-6-yl)butyl]-piperidin-2-one] to N[C@@H](CC(=O)N1CCc2c(C(F)(F)F)n[nH]c2C1)CN1CCCCC1=O [Ex. 20, 1-[2S-amino-4-oxo-4-(3-trifluoromethyl-1,4,5,7-tetrahydro-pyrazolo[3,4-c]pyridin-6-yl)-butyl]-piperidin-2-one], the IC50 falls from 712 nM to 268 nM (2.7-fold). The second is the more potent here.

Going from C[C@@H]1CCC(=O)N(C[C@@H](N)CC(=O)N2CCc3c(nc(-c4ccccc4)nc3C(F)(F)F)C2)C1 [Ex. 22, (5R)-1-{(2S)-2-amino-4-oxo-4-[2-phenyl-4-(trifluoromethyl)-5,8-dihydropyrido[3,4-d]pyrimidin-7(6H)-yl]butyl}-5-methylpiperidin-2-one] to C[C@H]1CN(C[C@@H](N)CC(=O)N2CCc3c(nc(-c4ccccc4)nc3C(F)(F)F)C2)C(=O)CO1 [Ex. 23], the IC50 rises from 49 nM to 130 nM (2.7-fold).

Compared with N[C@@H](CC(=O)N1CCc2c(nc(-c3ccccc3)nc2C(F)(F)F)C1)CN1CC(F)(F)CCC1=O [Ex. 24, 1-{(2S)-2-amino-4-oxo-4-[2-phenyl-4-(trifluoromethyl)-5,8-dihydropyrido[3,4-d]pyrimidin-7(6H)-yl]butyl}-5,5-difluoropiperidin-2-one], N[C@@H](CC(=O)N1CCc2c(nc(C3CC3)nc2C(F)(F)F)C1)CN1CC(F)(F)CCC1=O [Ex. 25, 1-{(2S)-2-amino-4-[2-cyclopropyl-4-(trifluoromethyl)-5,8-dihydropyrido[3,4-d]pyrimidin-7(6H)-yl]-4-oxobutyl}-5,5-difluoropiperidin-2-one] is 7.3-fold lower in IC50: 66 nM for the first, 9 nM for the second.

C[C@@H]1CCC(=O)N(C[C@@H](N)CC(=O)N2CCc3c(nc(C4CC4)nc3C(F)(F)F)C2)C1 [Ex. 26, 1-{(2S)-2-amino-4-[2-cyclopropyl-4-(trifluoromethyl)-5,8-dihydropyrido[3,4-d]pyrimidin-7(6H)-yl]-4-oxobutyl}-5-methylpiperidin-2-one] was tested, and the IC50 was 5 nM.
